This is an account of results in patent US20250235543A1, “MODIFIED PROTEINS AND PROTEIN DEGRADERS” (Cullgen (Shanghai), Inc., priority 2021, published 2025).

One experiment concerns cyclin D1. The experiment in a line: Cyclin D1 percentage degradation in Calu-1 cells (immunoblotting). It counts as cell-based. The following applies: 200 nM, 16 hours. Here is the method:
(§1) […] A: protein percentage degradation >=80%; B: protein percentage degradation <80%, and >=50%; C: protein percentage degradation <50%, and >=30%; D: protein percentage degradation <30%.
(§2) Cultured cells were washed with cold PBS once and lysed in cold RIPA buffer supplemented with protease inhibitors and phosphatase inhibitors (Beyotime Biotechnology). The solutions were then incubated at 4° C. for 30 min with gentle agitation to fully lysed cells. Cell lysates were centrifuged at 13,000 rpm for 10 min at 4° C. and pellets were discarded. Total protein concentrations in the lysates were determined following BCA assays (Beyotime Biotechnology). Cell lysates were mixed with Laemmli loading buffer and heated at 99° C. for 5 min. Proteins were resolved on SDS-PAGE and visualized using Western ECL Substrate kits on a ChemiDoc MP Imaging system (Bio-Rad). Protein bands were quantitated using the Image Lab software provided by Bio-Rad.

Another experiment concerns the target T1, CDK4 (Homo sapiens, UniProt P11802).
T1 construct: endogenous in cells; host or cells: Calu-1
The experiment in a line: CDK4 percentage degradation in Calu-1 cells (immunoblotting). It counts as cell-based. The following applies: Calu-1 cells, 200 nM, 16 hours; read-out: CDK4 Degradation (200 nM). The method, then:
as §1, §2

T1 sequence (P11802 2-303 limits assumed): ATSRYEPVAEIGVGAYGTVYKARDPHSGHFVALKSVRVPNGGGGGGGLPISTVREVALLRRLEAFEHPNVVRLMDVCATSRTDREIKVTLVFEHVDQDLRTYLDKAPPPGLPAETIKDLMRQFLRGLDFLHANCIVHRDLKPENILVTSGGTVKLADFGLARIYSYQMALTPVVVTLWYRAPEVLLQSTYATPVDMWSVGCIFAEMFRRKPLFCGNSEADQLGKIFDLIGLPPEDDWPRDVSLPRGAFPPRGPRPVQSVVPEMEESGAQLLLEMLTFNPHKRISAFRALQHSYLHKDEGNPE
T1 sequence (P24385 whole entry partner): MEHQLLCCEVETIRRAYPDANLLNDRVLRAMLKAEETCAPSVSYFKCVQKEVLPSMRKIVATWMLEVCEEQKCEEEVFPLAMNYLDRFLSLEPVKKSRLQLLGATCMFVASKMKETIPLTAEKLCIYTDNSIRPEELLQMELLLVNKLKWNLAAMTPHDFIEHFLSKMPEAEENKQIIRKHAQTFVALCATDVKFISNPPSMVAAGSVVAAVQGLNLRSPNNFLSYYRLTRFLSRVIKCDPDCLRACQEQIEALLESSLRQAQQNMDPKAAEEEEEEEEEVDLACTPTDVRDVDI
T1 sequence (Q16531 2-1140 limits assumed, further chain): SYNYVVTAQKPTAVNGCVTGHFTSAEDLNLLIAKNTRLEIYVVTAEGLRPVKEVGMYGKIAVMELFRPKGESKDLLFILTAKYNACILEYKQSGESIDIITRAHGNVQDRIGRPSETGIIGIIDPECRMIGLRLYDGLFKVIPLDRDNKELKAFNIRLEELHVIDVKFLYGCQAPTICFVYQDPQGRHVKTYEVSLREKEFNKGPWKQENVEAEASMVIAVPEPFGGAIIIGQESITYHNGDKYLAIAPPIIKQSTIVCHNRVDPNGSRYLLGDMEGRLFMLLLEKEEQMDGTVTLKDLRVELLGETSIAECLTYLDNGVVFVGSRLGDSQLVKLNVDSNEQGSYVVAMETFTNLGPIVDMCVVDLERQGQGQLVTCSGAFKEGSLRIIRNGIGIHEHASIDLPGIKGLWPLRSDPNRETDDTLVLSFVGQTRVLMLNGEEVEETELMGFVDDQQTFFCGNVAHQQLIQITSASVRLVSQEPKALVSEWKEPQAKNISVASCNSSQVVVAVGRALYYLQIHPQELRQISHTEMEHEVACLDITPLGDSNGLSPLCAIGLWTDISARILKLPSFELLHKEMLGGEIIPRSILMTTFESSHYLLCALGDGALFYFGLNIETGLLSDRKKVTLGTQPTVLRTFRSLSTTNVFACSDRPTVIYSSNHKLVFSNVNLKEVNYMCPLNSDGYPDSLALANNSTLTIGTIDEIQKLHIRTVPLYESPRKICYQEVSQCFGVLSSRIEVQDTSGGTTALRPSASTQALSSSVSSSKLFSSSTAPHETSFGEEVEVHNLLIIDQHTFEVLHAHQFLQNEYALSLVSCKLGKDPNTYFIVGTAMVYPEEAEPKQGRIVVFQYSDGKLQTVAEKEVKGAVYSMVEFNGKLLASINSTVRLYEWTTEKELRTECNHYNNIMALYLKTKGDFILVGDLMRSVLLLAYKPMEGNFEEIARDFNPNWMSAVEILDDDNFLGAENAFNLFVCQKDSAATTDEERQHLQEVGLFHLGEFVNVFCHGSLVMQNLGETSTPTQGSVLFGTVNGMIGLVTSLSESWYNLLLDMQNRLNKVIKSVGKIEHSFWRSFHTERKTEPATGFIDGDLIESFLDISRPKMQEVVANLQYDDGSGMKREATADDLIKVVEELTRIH

As to `CC(=O)c1c(C)c2cnc(Nc3ccc(N4CCN(CC(=O)NCCOCCOCCOCCOCCOCCNc5ccc(C(=O)Nc6ncc(-c7ccccc7)s6)c(C)c5)CC4)cn3)nc2n(C2CCCC2)c1=O` [CPD-001, 4-((1-(4-(6-((6-Acetyl-8-cyclopentyl-5-methyl-7-oxo-7,8-dihydropyrido[2,3-d]pyrimidin-2-yl)amino)pyridin-3-yl)piperazin-1-yl)-2-oxo-6,9,12,15,18-pentaoxa-3-azaicosan-20-yl)amino)-2-methyl-N-(5-phenylthiazol-2-yl)benzamide], in the experiment with cyclin D1, the “CyclinD1 Degradation (200 nM)” value was “D (protein percentage degradation <30%)”. Moreover, on CDK4, the inhibition at 0.2 µM is below 30%.
On to `CC(=O)c1c(C)c2cnc(Nc3ccc(N4CCN(CC(=O)NCCOCCOCCOCCOCCOCCNc5ccc(C(=O)Nc6ncc(C(F)(F)F)s6)c(C)c5)CC4)cn3)nc2n(C2CCCC2)c1=O` [CPD-003, 4-((1-(4-(6-((6-Acetyl-8-cyclopentyl-5-methyl-7-oxo-7,8-dihydropyrido[2,3-d]pyrimidin-2-yl)amino)pyridin-3-yl)piperazin-1-yl)-2-oxo-6,9,12,15,18-pentaoxa-3-azaicosan-20-yl)amino)-2-methyl-N-(5-(trifluoromethyl)thiazol-2-yl)benzamide], for which the “CyclinD1 Degradation (200 nM)” value in the experiment with cyclin D1 is “D (protein percentage degradation <30%)”. The inhibition at 0.2 µM on CDK4 is below 30%.
Turning to `CC(=O)c1c(C)c2cnc(Nc3ccc(N4CCN(CC(=O)NCCOCCOCCOCCOCCOCCNc5ccc(C(=O)Nc6ncc(Cl)s6)c(C)c5)CC4)cn3)nc2n(C2CCCC2)c1=O` [CPD-005, 4-((1-(4-(6-((6-Acetyl-8-cyclopentyl-5-methyl-7-oxo-7,8-dihydropyrido[2,3-d]pyrimidin-2-yl)amino)pyridin-3-yl)piperazin-1-yl)-2-oxo-6,9,12,15,18-pentaoxa-3-azaicosan-20-yl)amino)-N-(5-chlorothiazol-2-yl)-2-methylbenzamide], the “CyclinD1 Degradation (200 nM)” value in the experiment with cyclin D1 is listed as “D (protein percentage degradation <30%)”. For the same compound, at CDK4, the inhibition at 0.2 µM is below 30%.
In the case of `CC(=O)c1c(C)c2cnc(Nc3ccc(N4CCN(CC(=O)NCCOCCOCCOCCOCCOCCNc5ccc(C(=O)Nc6ncc(C(C)C)s6)c(C)c5)CC4)cn3)nc2n(C2CCCC2)c1=O` [CPD-006, 4-((1-(4-(6-((6-Acetyl-8-cyclopentyl-5-methyl-7-oxo-7,8-dihydropyrido[2,3-d]pyrimidin-2-yl)amino)pyridin-3-yl)piperazin-1-yl)-2-oxo-6,9,12,15,18-pentaoxa-3-azaicosan-20-yl)amino)-N-(5-isopropylthiazol-2-yl)-2-methylbenzamide], in the experiment with cyclin D1, the “CyclinD1 Degradation (200 nM)” value is listed as “D (protein percentage degradation <30%)”. In addition, the inhibition at 0.2 µM on CDK4 is below 30%.
With `CC(=O)c1c(C)c2cnc(Nc3ccc(N4CCN(CC(=O)NCCOCCOCCOCCOCCOCCNc5ccc(C(=O)Nc6nc(-c7ccccc7)cs6)c(C)c5)CC4)cn3)nc2n(C2CCCC2)c1=O` [CPD-007, 4-((1-(4-(6-((6-Acetyl-8-cyclopentyl-5-methyl-7-oxo-7,8-dihydropyrido[2,3-d]pyrimidin-2-yl)amino)pyridin-3-yl)piperazin-1-yl)-2-oxo-6,9,12,15,18-pentaoxa-3-azaicosan-20-yl)amino)-2-methyl-N-(4-phenylthiazol-2-yl)benzamide], in the experiment on cyclin D1, the “CyclinD1 Degradation (200 nM)” value is “D (protein percentage degradation <30%)”. For the same compound, the inhibition at 0.2 µM on CDK4 is below 30%.
As to `CC(=O)c1c(C)c2cnc(Nc3ccc(N4CCN(CC(=O)NCCOCCOCCOCCOCCOCCNC(=O)c5ccc(C(=O)Nc6ncc(C)s6)c(C)c5)CC4)cn3)nc2n(C2CCCC2)c1=O` [CPD-008, N^4-(1-(4-(6-((6-Acetyl-8-cyclopentyl-5-methyl-7-oxo-7,8-dihydropyrido[2,3-d]pyrimidin-2-yl)amino)pyridin-3-yl)piperazin-1-yl)-2-oxo-6,9,12,15,18-pentaoxa-3-azaicosan-20-yl)-2-methyl-N^1-(5-methylthiazol-2-yl)terephthalamide], the “CyclinD1 Degradation (200 nM)” value in the experiment with cyclin D1 was “D (protein percentage degradation <30%)”. Moreover, the inhibition at 0.2 µM at CDK4 is below 30%.
As to `CC(=O)c1c(C)c2cnc(Nc3ccc(N4CCN(CC(=O)NCCCCCNC(=O)c5ccc(C(=O)Nc6ncc(C)s6)c(C)c5)CC4)cn3)nc2n(C2CCCC2)c1=O` [CPD-009, N^4-(5-(2-(4-(6-((6-Acetyl-8-cyclopentyl-5-methyl-7-oxo-7,8-dihydropyrido[2,3-d]pyrimidin-2-yl)amino)pyridin-3-yl)piperazin-1-yl)acetamido)pentyl)-2-methyl-N^1-(5-methylthiazol-2-yl)terephthalamide], the “CyclinD1 Degradation (200 nM)” value with cyclin D1 is recorded as “D (protein percentage degradation <30%)”. Further, the inhibition at 0.2 µM at CDK4 was below 30%.
With `CC(=O)c1c(C)c2cnc(Nc3ccc(N4CCN(CC(=O)NCCOCCOCCNC(=O)c5ccc(C(=O)Nc6ncc(C)s6)c(C)c5)CC4)cn3)nc2n(C2CCCC2)c1=O` [CPD-010, N^4-(2-(2-(2-(2-(4-(6-((6-Acetyl-8-cyclopentyl-5-methyl-7-oxo-7,8-dihydropyrido[2,3-d]pyrimidin-2-yl)amino)pyridin-3-yl)piperazin-1-yl)acetamido)ethoxy)ethoxy)ethyl)-2-methyl-N^1-(5-methylthiazol-2-yl)terephthalamide], the “CyclinD1 Degradation (200 nM)” value with cyclin D1 is given as “D (protein percentage degradation <30%)”. At CDK4, the inhibition at 0.2 µM is below 30%.
On to `CC(=O)c1c(C)c2cnc(Nc3ccc(N4CCN(CC(=O)NCCOCCOCCOCCNC(=O)c5ccc(C(=O)Nc6ncc(C)s6)c(C)c5)CC4)cn3)nc2n(C2CCCC2)c1=O` [CPD-011, N^4-(1-(4-(6-((6-Acetyl-8-cyclopentyl-5-methyl-7-oxo-7,8-dihydropyrido[2,3-d]pyrimidin-2-yl)amino)pyridin-3-yl)piperazin-1-yl)-2-oxo-6,9,12-trioxa-3-azatetradecan-14-yl)-2-methyl-N^1-(5-methylthiazol-2-yl)terephthalamide], for which, in the experiment on cyclin D1, the “CyclinD1 Degradation (200 nM)” value is “D (protein percentage degradation <30%)”. The inhibition at 0.2 µM on CDK4 is below 30%.
On the same counts, the results for `CC(=O)c1c(C)c2cnc(Nc3ccc(N4CCN(CC(=O)NCCOCCOCCOCCOCCNC(=O)c5ccc(C(=O)Nc6ncc(C)s6)c(C)c5)CC4)cn3)nc2n(C2CCCC2)c1=O` [CPD-012, N^4-(1-(4-(6-((6-Acetyl-8-cyclopentyl-5-methyl-7-oxo-7,8-dihydropyrido[2,3-d]pyrimidin-2-yl)amino)pyridin-3-yl)piperazin-1-yl)-2-oxo-6,9,12,15-tetraoxa-3-azaheptadecan-17-yl)-2-methyl-N^1-(5-methylthiazol-2-yl)terephthalamide] are “D (protein percentage degradation <30%)” and below 30%.
With `CC(=O)c1c(C)c2cnc(Nc3ccc(N4CCN(CC(=O)NCCOCCOCCOCCOCCNC(=O)CNc5ccc(C(=O)Nc6ncc(C)s6)c(C)c5)CC4)cn3)nc2n(C2CCCC2)c1=O` [CPD-013, 4-((20-(4-(6-((6-Acetyl-8-cyclopentyl-5-methyl-7-oxo-7,8-dihydropyrido[2,3-d]pyrimidin-2-yl)amino)pyridin-3-yl)piperazin-1-yl)-2,19-dioxo-6,9,12,15-tetraoxa-3,18-diazaicosyl)amino)-2-methyl-N-(5-methylthiazol-2-yl)benzamide], the “CyclinD1 Degradation (200 nM)” value in the experiment with cyclin D1 is “D (protein percentage degradation <30%)”. The inhibition at 0.2 µM on CDK4 is below 30%.
For `CC(=O)c1c(C)c2cnc(Nc3ccc(N4CCN(CC(=O)NCCOCCOCCOCCOCCOCCNC(=O)CNc5ccc(C(=O)Nc6ncc(C)s6)c(C)c5)CC4)cn3)nc2n(C2CCCC2)c1=O` [CPD-014, 4-((23-(4-(6-((6-Acetyl-8-cyclopentyl-5-methyl-7-oxo-7,8-dihydropyrido[2,3-d]pyrimidin-2-yl)amino)pyridin-3-yl)piperazin-1-yl)-2,22-dioxo-6,9,12,15,18-pentaoxa-3,21-diazatricosyl)amino)-2-methyl-N-(5-methylthiazol-2-yl)benzamide], in the experiment with cyclin D1, the “CyclinD1 Degradation (200 nM)” value is reported as “D (protein percentage degradation <30%)”. In addition, the inhibition at 0.2 µM at CDK4 is below 30%.
Regarding `CC(=O)c1c(C)c2cnc(Nc3ccc(N4CCN(CC(=O)NCCCCCNC(=O)CNc5ccc(C(=O)Nc6ncc(C)s6)c(C)c5)CC4)cn3)nc2n(C2CCCC2)c1=O` [CPD-015, 4-((2-((5-(2-(4-(6-((6-Acetyl-8-cyclopentyl-5-methyl-7-oxo-7,8-dihydropyrido[2,3-d]pyrimidin-2-yl)amino)pyridin-3-yl)piperazin-1-yl)acetamido)pentyl)amino)-2-oxoethyl)amino)-2-methyl-N-(5-methylthiazol-2-yl)benzamide], the “CyclinD1 Degradation (200 nM)” value with cyclin D1 is “D (protein percentage degradation <30%)”. The inhibition at 0.2 µM at CDK4 is below 30%.
Consider `CC(=O)c1c(C)c2cnc(Nc3ccc(N4CCN(CC(=O)NCCCCCCCNC(=O)CNc5ccc(C(=O)Nc6ncc(C)s6)c(C)c5)CC4)cn3)nc2n(C2CCCC2)c1=O` [CPD-016, 4-((2-((7-(2-(4-(6-((6-Acetyl-8-cyclopentyl-5-methyl-7-oxo-7,8-dihydropyrido[2,3-d]pyrimidin-2-yl)amino)pyridin-3-yl)piperazin-1-yl)acetamido)heptyl)amino)-2-oxoethyl)amino)-2-methyl-N-(5-methylthiazol-2-yl)benzamide], for which the “CyclinD1 Degradation (200 nM)” value with cyclin D1 is given as “D (protein percentage degradation <30%)”. Further, the inhibition at 0.2 µM at CDK4 is below 30%.
